From PubChem BioAssay AID1963864 (Molecular Pharmacology Branch, DTP, NCI, 2024)
pIC50: −log10 of the molar value.

Test system: KRAS PDC multicell spheroid viability
Assay: Anticancer human tumor 521955-158-R6-J3-PDC patient-derived pancreatic carcinoma cell line growth inhibition [KRAS2]
Details: for pIC50: curve of first compound; for viability, T/C: stronger effect = lower value
Method in brief: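 Combination screen of spheroid viability in tumor-cell co-cultures with endothelial (HUVEC) and mesenchymal stem cell stroma. Each agent was tested in half-log dilutions, topping at clinical Cmax or at 10 microM without a known Cmax.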

[1] = second compound 0.1 µM, first compound 0.000316 µM
[2] = second compound 0.1 µM, first compound 0.001 µM
[3] = second compound 0.1 µM, first compound 0.00316 µM
[4] = second compound 0.1 µM, first compound 0.01 µM
[5] = second compound 0.1 µM, first compound 0.0316 µM
[6] = second compound 0.1 µM, first compound 0.1 µM
[7] = second compound 0.316 µM, first compound 0.000316 µM
[8] = second compound 0.316 µM, first compound 0.001 µM
[9] = second compound 0.316 µM, first compound 0.00316 µM
[10] = second compound 0.316 µM, first compound 0.01 µM
[11] = second compound 0.316 µM, first compound 0.0316 µM
[12] = second compound 0.316 µM, first compound 0.1 µM
[13] = second compound 1 µM, first compound 0.000316 µM
[14] = second compound 1 µM, first compound 0.001 µM
[15] = second compound 1 µM, first compound 0.00316 µM
[16] = second compound 1 µM, first compound 0.01 µM
[17] = second compound 1 µM, first compound 0.0316 µM
[18] = second compound 1 µM, first compound 0.1 µM
[19] = second compound 3.16 µM, first compound 0.000316 µM
[20] = second compound 3.16 µM, first compound 0.001 µM
[21] = second compound 3.16 µM, first compound 0.00316 µM
[22] = second compound 3.16 µM, first compound 0.01 µM
[23] = second compound 3.16 µM, first compound 0.0316 µM
[24] = second compound 3.16 µM, first compound 0.1 µM
[25] = second compound 10 µM, first compound 0.000316 µM
[26] = second compound 10 µM, first compound 0.001 µM
[27] = second compound 10 µM, first compound 0.00316 µM
[28] = second compound 10 µM, first compound 0.01 µM
[29] = second compound 10 µM, first compound 0.0316 µM
[30] = second compound 10 µM, first compound 0.1 µM
[31] = second compound 0.1 µM, first compound 0.316 µM
[32] = second compound 0.1 µM, first compound 1 µM
[33] = second compound 0.1 µM, first compound 3.16 µM
[34] = second compound 0.1 µM, first compound 10 µM
[35] = second compound 0.316 µM, first compound 0.316 µM
[36] = second compound 0.316 µM, first compound 1 µM
[37] = second compound 0.316 µM, first compound 3.16 µM
[38] = second compound 0.316 µM, first compound 10 µM
[39] = second compound 1 µM, first compound 0.316 µM
[40] = second compound 1 µM, first compound 1 µM
[41] = second compound 1 µM, first compound 3.16 µM
[42] = second compound 1 µM, first compound 10 µM
[43] = second compound 3.16 µM, first compound 0.316 µM
[44] = second compound 3.16 µM, first compound 1 µM
[45] = second compound 3.16 µM, first compound 3.16 µM
[46] = second compound 3.16 µM, first compound 10 µM
[47] = second compound 10 µM, first compound 0.316 µM
[48] = second compound 10 µM, first compound 1 µM
[49] = second compound 10 µM, first compound 3.16 µM
[50] = second compound 10 µM, first compound 10 µM
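Further: drug exposure lasted seven days.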
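Wherever viability, T/C is given: 100% = DMSO vehicle wells and lower means fewer viable cells.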

Row | Compound | pIC50 (second compound 0.1 µM) | pIC50 (second compound 0.316 µM) | pIC50 (second compound 1 µM) | pIC50 (second compound 3.16 µM) | pIC50 (second compound 10 µM) | viability, T/C [1] [%] | viability, T/C [2] [%] | viability, T/C [3] [%] | viability, T/C [4] [%] | viability, T/C [5] [%] | viability, T/C [6] [%] | viability, T/C [7] [%] | viability, T/C [11] [%] | viability, T/C [12] [%] | viability, T/C [17] [%] | viability, T/C [18] [%] | viability, T/C [23] [%] | viability, T/C [24] [%] | viability, T/C [29] [%] | viability, T/C [30] [%] | also measured
1 | CC(C)n1nc(-c2ccc3oc(N)nc3c2)c2c(N)ncnc21 + CC1OCC2(CCN(c3cnc(Sc4ccnc(N)c4Cl)c(N)n3)CC2)C1N | < 7.00 | 7.25 | 7.25 | 7.47 | 7.63 | 89 | 85.8 | 74 | 65.3 | 57.4 | 50 | 92.3 | 56.2 | 44.3 | 56 | 44.1 | 51.3 | 40.2 | 47.3 | 38.3 | viability, T/C [8]: 84.2%; viability, T/C [9]: 71.7%; viability, T/C [10]: 65.6%; viability, T/C [13]: 88.3%; viability, T/C [14]: 86.5%; viability, T/C [15]: 74.2%; viability, T/C [16]: 66.8%; viability, T/C [19]: 112%; viability, T/C [20]: 113%; viability, T/C [21]: 88.8%; viability, T/C [22]: 70.7%; viability, T/C [25]: 99.1%; viability, T/C [26]: 101%; viability, T/C [27]: 89.7%; viability, T/C [28]: 63.1%
2 | CC1(C)CCC(CN2CCN(c3ccc(C(=O)NS(=O)(=O)c4ccc(NCC5CCOCC5)c([N+](=O)[O-])c4)c(Oc4cnc5[nH]ccc5c4)c3)CC2)=C(c2ccc(Cl)cc2)C1 + CC1OCC2(CCN(c3cnc(Sc4ccnc(N)c4Cl)c(N)n3)CC2)C1N | 5.15 | 5.24 | 5.26 | 5.36 | 5.55 | – | – | – | – | 96 | 89.7 | – | 86.2 | 98.2 | 102 | 94.7 | 115 | 120 | 107 | 109 | viability, T/C [31]: 95.3%; viability, T/C [32]: 77.6%; viability, T/C [33]: 70.5%; viability, T/C [34]: 41.3%; viability, T/C [35]: 89%; viability, T/C [36]: 87%; viability, T/C [37]: 62%; viability, T/C [38]: 39.3%; viability, T/C [39]: 103%; viability, T/C [40]: 99%; viability, T/C [41]: 71.1%; viability, T/C [42]: 27.3%; viability, T/C [43]: 121%; viability, T/C [44]: 116%; viability, T/C [45]: 64.2%; viability, T/C [46]: 13.1%; viability, T/C [47]: 114%; viability, T/C [48]: 107%; viability, T/C [49]: 44.3%; viability, T/C [50]: 3.41%
3 | COc1cc2nccc(Oc3ccc(NC(=O)C4(C(=O)Nc5ccc(F)cc5)CC4)cc3)c2cc1OC + CC1OCC2(CCN(c3cnc(Sc4ccnc(N)c4Cl)c(N)n3)CC2)C1N | < 5.00 | < 5.00 | < 5.00 | < 5.00 | < 5.00 | – | – | – | – | 93.7 | 93.7 | – | 97.5 | 91 | 116 | 96.8 | 115 | 122 | 112 | 121 | viability, T/C [31]: 89.3%; viability, T/C [32]: 102%; viability, T/C [33]: 105%; viability, T/C [34]: 102%; viability, T/C [35]: 89.3%; viability, T/C [36]: 105%; viability, T/C [37]: 108%; viability, T/C [38]: 86.5%; viability, T/C [39]: 108%; viability, T/C [40]: 112%; viability, T/C [41]: 90.7%; viability, T/C [42]: 90%; viability, T/C [43]: 118%; viability, T/C [44]: 119%; viability, T/C [45]: 103%; viability, T/C [46]: 81.6%; viability, T/C [47]: 111%; viability, T/C [48]: 119%; viability, T/C [49]: 80.6%; viability, T/C [50]: 67.7%
4 | Cn1ncnc1[C@H]1c2n[nH]c(=O)c3cc(F)cc(c23)N[C@@H]1c1ccc(F)cc1 + CC1OCC2(CCN(c3cnc(Sc4ccnc(N)c4Cl)c(N)n3)CC2)C1N | < 7.00 | < 7.00 | < 7.00 | < 7.00 | < 7.00 | 86.7 | 91 | 78.5 | 83.2 | 79.5 | 77.2 | 93.3 | 79.2 | 78.2 | 82.9 | 86.4 | 96.2 | 82 | 100 | 97.9 | viability, T/C [8]: 76.7%; viability, T/C [9]: 81.5%; viability, T/C [10]: 80.2%; viability, T/C [13]: 83.6%; viability, T/C [14]: 82%; viability, T/C [15]: 79%; viability, T/C [16]: 78%; viability, T/C [19]: 99.8%; viability, T/C [20]: 95.6%; viability, T/C [21]: 96.3%; viability, T/C [22]: 106%; viability, T/C [25]: 105%; viability, T/C [26]: 103%; viability, T/C [27]: 95%; viability, T/C [28]: 103%
